Measured values from patent publication US9629861B2, “Compositions and methods for treating bacterial infections using ceftaroline” (Forest Laboratories Holdings Limited, priority 2009, dated 2017).
Read-outs that look alike come from different tables or passages of the source.

Assays:
[1] = molecular target: T1, CYP2C19 (Homo sapiens, UniProt P33261); assay: CYP inhibition in human liver microsomes; type: in vitro ADME
T1 construct: In vitro studies in human liver microsomes; from tissue; host or cells: human liver microsomes

[2] = molecular target: T2, CYP2D6 (Homo sapiens, UniProt P10635); assay: CYP inhibition in human liver microsomes; type: in vitro ADME
T2 construct: In vitro studies in human liver microsomes; from tissue; host or cells: human liver microsomes

[3] = molecular target: T3, CYP2E1 (Homo sapiens, UniProt P05181); assay: CYP inhibition in human liver microsomes; type: in vitro ADME
T3 construct: In vitro studies in human liver microsomes; from tissue; host or cells: human liver microsomes

[4] = tested on: CYP2C9; assay: CYP induction in human hepatocytes; type: in vitro ADME
[5] = tested on: CYP3A4/5; assay: CYP induction in human hepatocytes; type: in vitro ADME
[6] = tested on: complicated skin and skin structure infections (cSSSI); assay: Two Phase 3 studies in cSSSI, integrated; type: in vivo, human; details: co-primary CE and MITT populations
Description: A total of 1396 adults with clinically documented complicated skin and skin structure infections (cSSSI) were enrolled in two randomized, multi-center, multinational, double-blind, studies comparing 600 mg ceftaroline fosamil administered intravenously over 1 hour every 12 hours to vancomycin plus aztreonam [1 g vancomycin administered intravenously over 1 hour followed by 1 g aztreonam administered intravenously over 1 hour every 12 hours]. Patients with cSSSI (deep/extensive cellulitis, a major abscess, a wound infection [surgical or traumatic], infected insect bites, burns or ulcers, lower extremity infection in patients with diabetes mellitus or peripheral vascular disease), were enrolled in the studies. Treatment duration was 5 to 14 days. A switch to oral therapy was not allowed. The Modified Intent-to-Treat (MITT) population included all patients who received any amount of study drug according to their randomized treatment group.
The primary efficacy endpoint was clinical response at the Test of Cure (TOC) visit in the co-primary CE and MITT populations (Table 2). […] In a subgroup analysis (CE population), the comparative clinical cure rates between the ceftaroline group and the vancomycin plus aztreonam group were not affected by age, gender, race, ethnicity, or weight.

[7] = tested on: Community-Acquired Bacterial Pneumonia (CABP); assay: Phase 3 CABP Study 2 (Example 4, no adjunctive macrolide); type: in vivo, human; details: for Clinical Cure Rate at TOC / Treatment Difference in clinical cure rate at TOC: CABP Study 2; for Difference, clinical cure rate at EOT / Difference, favorable microbiological outcome at TOC: ceftaroline minus ceftriaxone, Example 4; for Treatment Difference in clinical cure rate at TOC: versus ceftriaxone
Description: In both treatment groups of CABP Study 1, two doses of oral clarithromycin (500 mg q12h), were administered as adjunctive therapy starting on Study Day 1. No adjunctive macrolide therapy was used in CABP Study 2. Patients with new or progressive pulmonary infiltrate(s) on chest radiography and clinical signs and symptoms consistent with CABP with the need for hospitalization and IV therapy were enrolled in the studies. Treatment duration was 5 to 7 days. A switch to oral therapy was not allowed. The Modified Intent-to-Treat Efficacy (MITTE) population included all patients who received any amount of study drug according to their randomized treatment group and were in PORT (Pneumonia Outcomes Research Team) Risk Class III or IV.
The primary efficacy endpoint was the clinical response at the Test of Cure (TOC) visit in the co-primary CE and MITTE populations (Table 4).
The secondary objectives of the study were to evaluate the following: clinical response at end-of-therapy (EOT); the microbiological favorable outcome rate at TOC; the overall (clinical and radiographic) success rate at TOC; the clinical and microbiological response by pathogen at TOC; clinical relapse at late follow-up (LFU); microbiological reinfection/recurrence at LFU; and safety.
The following criteria were used for evaluation: The primary efficacy outcome measures were the per-subject clinical cure rate at test-of-cure (TOC) in the CE and MITTE Populations. Subjects were considered clinically cured at TOC if they had total resolution of all signs and symptoms of the baseline infection, or improvement of the infection such that no further antimicrobial therapy was necessary.
Non-inferiority was concluded if the lower limit of the 95% CI was higher than −10%.

[8] = tested on: MDRSP; assay: Example 4 CAP study, outcome by baseline pathogen; type: in vivo, Streptococcus pneumoniae
Source text: (§1) Per-pathogen clinical cure rate and favorable microbiological outcome rate at TOC in the mMITTE and ME Populations;

[9] = tested on: S. pneumoniae; assay: Example 4 CAP study, outcome by baseline pathogen; type: in vivo, Streptococcus pneumoniae
Source text: as §1

[10] = tested on: S. aureus; assay: Example 4 CAP study, outcome by baseline pathogen; type: in vivo, Staphylococcus aureus
Source text: as §1

[11] = human, in vivo
[12] = Example 4
Description: The 600-mg dose of ceftaroline fosamil infused over 60 minutes was split into two infusions in order to maintain the blind. For subjects with moderate renal impairment (30 ml/min<CrCl≦50 ml/min), as estimated by the Cockroft-Gault formula, unblinded pharmacy staff or unblinded study staff could adjust the dose of ceftaroline fosamil to two consecutive 200 mg infusions and readjust dose to two 300 mg infusions when renal function improved (CrCl>50 mL/min). The duration of treatment was between 5 to 7 days.
(§2) All subjects who received any amount of study drug were included in the safety analysis. Safety measures included monitoring for adverse events (AE) up to TOC and serious adverse events (SAE) through LFU; recording vital signs, physical examination, electrocardiogram (ECG), and clinical laboratory findings (clinical chemistry, hematology, and urinalysis), at prespecified times throughout the study.

[13] = Example 5
Description: The 600-mg dose of ceftaroline fosamil infused over 60 minutes was split into two infusions in order to maintain the blind. For subjects with moderate renal impairment (30 mL/min<CrCl≦50 mL/min), as estimated by the Cockroft-Gault formula, unblinded pharmacy staff or unblinded study staff could adjust the dose of ceftaroline fosamil to two consecutive 200 mg infusions and readjust dose to two 300 mg infusions when renal function improved (CrCl>50 mL/min). The duration of treatment was between 5 to 7 days.
as §2

[14] = Safety population, listed as ceftaroline

T1 sequence (P33261 whole entry): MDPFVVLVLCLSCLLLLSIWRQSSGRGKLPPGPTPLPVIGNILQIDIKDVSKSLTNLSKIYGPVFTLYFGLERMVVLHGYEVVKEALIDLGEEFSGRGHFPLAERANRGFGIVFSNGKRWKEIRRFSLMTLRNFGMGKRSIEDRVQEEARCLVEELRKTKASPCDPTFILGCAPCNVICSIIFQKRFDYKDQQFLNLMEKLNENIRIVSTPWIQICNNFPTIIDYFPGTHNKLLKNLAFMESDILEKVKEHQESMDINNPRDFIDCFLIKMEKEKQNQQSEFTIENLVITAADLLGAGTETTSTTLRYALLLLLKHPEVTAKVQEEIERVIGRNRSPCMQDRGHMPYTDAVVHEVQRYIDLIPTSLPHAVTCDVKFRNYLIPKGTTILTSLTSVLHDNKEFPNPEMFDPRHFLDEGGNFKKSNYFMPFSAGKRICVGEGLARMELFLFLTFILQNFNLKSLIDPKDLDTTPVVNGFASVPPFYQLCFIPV
T2 sequence (P10635 whole entry): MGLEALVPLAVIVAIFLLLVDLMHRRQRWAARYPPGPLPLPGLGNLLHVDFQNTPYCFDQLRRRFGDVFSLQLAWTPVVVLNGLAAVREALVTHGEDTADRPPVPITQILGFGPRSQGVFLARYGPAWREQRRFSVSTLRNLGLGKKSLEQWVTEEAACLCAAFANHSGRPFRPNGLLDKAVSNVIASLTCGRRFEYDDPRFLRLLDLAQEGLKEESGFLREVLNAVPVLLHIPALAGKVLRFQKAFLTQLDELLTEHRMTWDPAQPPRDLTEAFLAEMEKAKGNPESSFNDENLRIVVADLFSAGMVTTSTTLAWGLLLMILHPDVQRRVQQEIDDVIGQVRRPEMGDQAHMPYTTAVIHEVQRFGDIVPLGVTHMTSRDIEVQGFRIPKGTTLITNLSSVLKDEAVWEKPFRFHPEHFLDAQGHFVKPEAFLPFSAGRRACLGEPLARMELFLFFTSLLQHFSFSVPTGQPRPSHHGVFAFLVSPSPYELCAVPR
T3 sequence (P05181 whole entry): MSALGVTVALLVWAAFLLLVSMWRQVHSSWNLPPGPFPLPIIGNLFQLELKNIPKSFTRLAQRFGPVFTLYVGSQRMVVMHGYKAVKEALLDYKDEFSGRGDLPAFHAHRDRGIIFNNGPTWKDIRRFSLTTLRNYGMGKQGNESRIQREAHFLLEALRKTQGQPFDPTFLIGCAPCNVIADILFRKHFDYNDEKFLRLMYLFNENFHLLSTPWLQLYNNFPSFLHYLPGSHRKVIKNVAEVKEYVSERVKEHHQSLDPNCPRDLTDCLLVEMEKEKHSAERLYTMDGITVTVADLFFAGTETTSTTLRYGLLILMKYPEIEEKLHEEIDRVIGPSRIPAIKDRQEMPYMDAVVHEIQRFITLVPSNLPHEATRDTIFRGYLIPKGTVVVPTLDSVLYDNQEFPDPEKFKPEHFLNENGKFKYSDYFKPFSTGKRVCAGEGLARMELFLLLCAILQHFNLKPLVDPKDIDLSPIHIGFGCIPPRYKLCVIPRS

**Q.** With `CCO/N=C(\C(=O)N[C@@H]1C(=O)N2C(C(=O)[O-])=C(Sc3nc(-c4cc[n+](C)cc4)cs3)CS[C@H]12)c1nsc(N)n1` [Ceftaroline] as the molecule, how does the “inhibition of CYP2C19” value [1] read?
**A.** Its value is “neither ceftaroline fosamil nor ceftaroline inhibits”.

**Q.** What about the “inhibition of CYP2D6” value [2] of the same molecule?
**A.** Its value is “neither ceftaroline fosamil nor ceftaroline inhibits”.

**Q.** And the “inhibition of CYP2E1” value [3]?
**A.** The value was “neither ceftaroline fosamil nor ceftaroline inhibits”.

**Q.** And the “induction of CYP2C9” value [4]?
**A.** The value was “not inducers”.

**Q.** And the “induction of CYP3A4/5” value [5]?
**A.** The value was “not inducers”.

**Q.** And the “clinical response at TOC compared with vancomycin plus aztreonam” value [6]?
**A.** The value was “non-inferior”.

**Q.** What about the “Clinical Cure Rate at TOC” value ([7]; CE population) of the same molecule?
**A.** Its value is 193 (82.1) %.

**Q.** And the “Clinical Cure Rate at TOC” value ([7]; MITTE population)?
**A.** Its value is 235 (81.3) %.

**Q.** What about the “Difference, clinical cure rate at EOT” value ([7]; CE) of the same molecule?
**A.** The value was 6.0%.

**Q.** And the “Difference, favorable microbiological outcome at TOC” value ([7]; ME)?
**A.** The value was 1.8%.

**Q.** What about the “Difference, clinical cure rate at EOT” value ([7]; MITTE) of the same molecule?
**A.** The value was 7.4%.

**Q.** What about the “Difference, favorable microbiological outcome at TOC” value ([7]; mMITTE) of the same molecule?
**A.** Its value is 0.4%.

**Q.** And the “Treatment Difference in clinical cure rate at TOC” value ([7]; CE)?
**A.** Its value is 4.9%.

**Q.** What about the “Treatment Difference in clinical cure rate at TOC” value ([7]; MITTE) of the same molecule?
**A.** The value was 5.9%.

**Q.** And the “Favorable Microbiological Outcome at TOC by Baseline Pathogen” value ([8]; ME)?
**A.** Its value is 2/2 (100.0) %.

**Q.** What about the “Clinical Cure Rate at the TOC Visit by Baseline Pathogen” value (from here on “Clinical Cure Rate at the TOC Visit”) ([8]; ME population) of the same molecule?
**A.** Its value is 2/2 (100.0) %.

**Q.** What about the “Favorable Microbiological Outcome at TOC by Baseline Pathogen” value ([9]; ME) of the same molecule?
**A.** Its value is 35/39 (89.7) %.

**Q.** And the “Clinical Cure Rate at the TOC Visit” value ([9]; ME population)?
**A.** The value was 33/39 (84.6) %.

**Q.** And the “Favorable Microbiological Outcome at TOC by Baseline Pathogen” value ([10]; ME)?
**A.** The value was 11/15 (73.3) %.

**Q.** And the “Clinical Cure Rate at the TOC Visit” value ([10]; ME population)?
**A.** The value was 10/15 (66.7) %.

**Q.** And the “AUC higher in female than in male subjects” value [11]?
**A.** The value was 6-15%.

**Q.** And the “Cmax higher in female than in male subjects” value [11]?
**A.** The value was 17-22%.

**Q.** And the “TEAEs leading to premature discontinuation from study drug administration” value [12]?
**A.** Its value is 0.6%.

**Q.** What about the “any study-drug-related TEAEs, subjects” value [12] of the same molecule?
**A.** The value was 12.4%.

**Q.** What about the “study-drug-related TEAE: headache” value [12] of the same molecule?
**A.** The value was 0.6%.

**Q.** And the “Early withdrawal from study, reason Adverse Event” value ([12]; MITTE population)?
**A.** The value was 8 (2.8) %.

**Q.** What about the “Any AE (TEAE), subjects” value ([12]; Safety population) of the same molecule?
**A.** The value was 169 (53.7) %.

**Q.** And the “COPD, subjects” value ([12]; Safety population)?
**A.** The value was 8 (2.5) %.

**Q.** And the “Diarrhea, subjects” value ([12]; Safety population)?
**A.** The value was 12 (3.8) %.

**Q.** And the “Headache, subjects” value ([12]; Safety population)?
**A.** Its value is 11 (3.5) %.

**Q.** What about the “Hypertension, subjects” value ([12]; Safety population) of the same molecule?
**A.** The value was 8 (2.5) %.

**Q.** What about the “Hypokalemia, subjects” value ([12]; Safety population) of the same molecule?
**A.** Its value is 10 (3.2) %.

**Q.** What about the “Insomnia, subjects” value ([12]; Safety population) of the same molecule?
**A.** The value was 10 (3.2) %.

**Q.** What about the “Nausea, subjects” value ([12]; Safety population) of the same molecule?
**A.** Its value is 6 ( 1.9) %.

**Q.** And the “Phlebitis, subjects” value ([12]; Safety population)?
**A.** The value was 10 (3.2) %.

**Q.** What about the “Pleural effusion, subjects” value ([12]; Safety population) of the same molecule?
**A.** The value was 4 (1.3) %.

**Q.** What about the “Pneumonia, subjects” value ([12]; Safety population) of the same molecule?
**A.** The value was 8 (2.5) %.

**Q.** And the “Any AE (TEAE), subjects” value [12, 14]?
**A.** The value was 53.7%.

**Q.** What about the “TEAEs leading to premature discontinuation from study drug administration” value [13] of the same molecule?
**A.** Its value is 3.7%.

**Q.** And the “subjects with SAEs considered possibly or probably related to study drug” value [13]?
**A.** Its value is 2 subjects.

**Q.** What about the “Early withdrawal from study, reason Adverse Event” value ([13]; MITTE population) of the same molecule?
**A.** Its value is 5 (1.7) %.

**Q.** What about the “Any AE (TEAE), subjects” value ([13]; Safety population) of the same molecule?
**A.** Its value is 119 (39.9) %.

**Q.** What about the “Constipation, subjects” value ([13]; Safety population) of the same molecule?
**A.** Its value is 7 (2.3) %.

**Q.** What about the “Diarrhea, subjects” value ([13]; Safety population) of the same molecule?
**A.** Its value is 14 (4.7) %.

**Q.** What about the “Headache, subjects” value ([13]; Safety population) of the same molecule?
**A.** Its value is 10 (3.4) %.

**Q.** And the “Hypertension, subjects” value ([13]; Safety population)?
**A.** The value was 6 (2.0) %.

**Q.** What about the “Hypokalemia, subjects” value ([13]; Safety population) of the same molecule?
**A.** Its value is 4 (1.3) %.

**Q.** What about the “Insomnia, subjects” value ([13]; Safety population) of the same molecule?
**A.** Its value is 9 (3.0) %.

**Q.** What about the “Nausea, subjects” value ([13]; Safety population) of the same molecule?
**A.** The value was 8 ( 2.7) %.

**Q.** What about the “Phlebitis, subjects” value ([13]; Safety population) of the same molecule?
**A.** The value was 7 (2.3) %.

**Q.** And the “Any AE (TEAE), subjects” value [13, 14]?
**A.** Its value is 39.9%.

**Q.** And the “Diarrhea, subjects” value [13, 14]?
**A.** The value was 4.7%.

**Q.** And the “Headache, subjects” value [13, 14]?
**A.** Its value is 3.4%.
